Patent US5714576A, “Linear analogs of alpha-msh fragments” (Competitive Technologies, Inc., priority 1997, dated 1998)
Non-standard residues stand in square brackets, D forms with d. Residues, ends and D or L forms follow the SMILES beside them. Nle = CCCC[C@H](N)C(=O)O; Dab = NCC[C@H](N)C(=O)O

How the values were obtained:
[1] = tested on: Lizard (Anolis carolinensis) Skin; type: cell-based; settings: for Residual Activity Lizard (prolonged action): linear analogues
Experimental: (§1) The biological potencies of alpha-MSH, the linear and cyclic analogues were determined by their ability to stimulate melanosome dispersion in vitro in the frog and lizard bioassays. This in vitro assay provides clear cut dose response curves (between 2.5×10^-11 and 4×10^-10 M) and can detect minimal concentration of alpha-MSH of about 10^-11 M. The assay is based upon the centrifugal dispersion of melanosomes (melanin granules) within the dendritic processes of integumental dermal melanophores leading to darkening of the skin. All the test solutions were prepared via serial dilutions from a stock solution (10^-4 M). The frogs (Rana pipiens) used in these evaluations were obtained from Kons Scientific, Germantown, Wis., and the lizards (Anolis carolinensis) were from the Snake Farm, La Place, La.

Frog (Rana pipiens) Skin = type: cell-based; settings: for Residual Activity Frog (prolonged action): linear analogues
Experimental: as §1

SMILES | Biological Potency Lizard [1] | Residual Activity Lizard (prolonged action) [1] | Biological Potency Frog (Frog (Rana pipiens) Skin) | Residual Activity Frog (prolonged action) (Frog (Rana pipiens) Skin)
CCCC[C@H](NC(=O)[C@H](CO)NC(=O)[C@H](Cc1ccc(O)cc1)NC(=O)[C@H](CO)NC(C)=O)C(=O)N[C@@H](CCC(=O)O)C(=O)N[C@@H](Cc1c[nH]cn1)C(=O)N[C@H](Cc1ccccc1)C(=O)N[C@@H](CCCNC(=N)N)C(=O)N[C@@H](Cc1c[nH]c2ccccc12)C(=O)N[C@@H](CCCCN)C(=O)NCC(=O)N1CCC[C@H]1C(=O)N[C@H](C(N)=O)C(C)C [Analogue 1] (Ac-SYS[Nle]EH[dF]RWKGPV-NH2) | 8.0 | P(-) | 6.0 | P(+)
CCCC[C@H](NC(=O)[C@H](CO)NC(=O)[C@H](Cc1ccc(O)cc1)NC(=O)[C@H](CO)NC(C)=O)C(=O)N[C@@H](CC(=O)O)C(=O)N[C@@H](Cc1c[nH]cn1)C(=O)N[C@H](Cc1ccccc1)C(=O)N[C@@H](CCCNC(=N)N)C(=O)N[C@@H](Cc1c[nH]c2ccccc12)C(=O)N[C@@H](CCCCN)C(=O)NCC(=O)N1CCC[C@H]1C(=O)N[C@H](C(N)=O)C(C)C [Analogue 2] (Ac-SYS[Nle]DH[dF]RWKGPV-NH2) | 8.0 | P(-) | 9.0 | P(+)
CCCC[C@H](NC(C)=O)C(=O)N[C@@H](CCC(=O)O)C(=O)N[C@@H](Cc1c[nH]cn1)C(=O)N[C@H](Cc1ccccc1)C(=O)N[C@@H](CCCNC(=N)N)C(=O)N[C@@H](Cc1c[nH]c2ccccc12)C(=O)N[C@@H](CCCCN)C(=O)NCC(=O)N1CCC[C@H]1C(=O)N[C@H](C(N)=O)C(C)C [Analogue 3] (Ac-[Nle]EH[dF]RWKGPV-NH2) | 8.0 | P(+) | 0.8 | P(+)
CCCC[C@H](NC(C)=O)C(=O)N[C@@H](CC(=O)O)C(=O)N[C@@H](Cc1c[nH]cn1)C(=O)N[C@H](Cc1ccccc1)C(=O)N[C@@H](CCCNC(=N)N)C(=O)N[C@@H](Cc1c[nH]c2ccccc12)C(=O)N[C@@H](CCCCN)C(=O)NCC(=O)N1CCC[C@H]1C(=O)N[C@H](C(N)=O)C(C)C [Analogue 4] (Ac-[Nle]DH[dF]RWKGPV-NH2) | 10.0 | P(+) | 1.0 | P(+)
CCCC[C@H](NC(C)=O)C(=O)N[C@@H](CC(=O)O)C(=O)N[C@@H](Cc1c[nH]cn1)C(=O)N[C@H](Cc1ccccc1)C(=O)N[C@@H](CCCNC(=N)N)C(=O)N[C@@H](Cc1c[nH]c2ccccc12)C(=O)NCC(N)=O [Analogue 5] | 8.0 | P(-) | 0.1 | P(-)
CCCC[C@H](NC(C)=O)C(=O)N[C@@H](CCC(=O)O)C(=O)N[C@@H](Cc1c[nH]cn1)C(=O)N[C@H](Cc1ccccc1)C(=O)N[C@@H](CCCNC(=N)N)C(=O)N[C@@H](Cc1c[nH]c2ccccc12)C(=O)N[C@@H](CCCCN)C(N)=O [Analogue 6] | 8.0 | P(-) | 0.2 | P(-)
CCCC[C@H](NC(C)=O)C(=O)N[C@@H](CC(=O)O)C(=O)N[C@@H](Cc1c[nH]cn1)C(=O)N[C@H](Cc1ccccc1)C(=O)N[C@@H](CCCNC(=N)N)C(=O)N[C@@H](Cc1c[nH]c2ccccc12)C(=O)N[C@@H](CCCCN)C(N)=O [Analogue 7] | 8.0 | P(-) | – | –
CCCC[C@H](NC(C)=O)C(=O)N[C@@H](CCC(=O)O)C(=O)N[C@@H](Cc1c[nH]cn1)C(=O)N[C@H](Cc1ccccc1)C(=O)N[C@@H](CCCNC(=N)N)C(=O)N[C@@H](Cc1c[nH]c2ccccc12)C(=O)N[C@@H](CCCN)C(N)=O [Analogue 8] | 8.0 | P(-) | 0.6 | P(-)
CCCC[C@H](NC(C)=O)C(=O)N[C@@H](CC(=O)O)C(=O)N[C@@H](Cc1c[nH]cn1)C(=O)N[C@H](Cc1ccccc1)C(=O)N[C@@H](CCCNC(=N)N)C(=O)N[C@@H](Cc1c[nH]c2ccccc12)C(=O)N[C@@H](CCCN)C(N)=O [Analogue 9] | 10.0 | P(-) | 0.9 | –
CCCC[C@H](NC(C)=O)C(=O)N[C@@H](CCC(=O)O)C(=O)N[C@@H](Cc1c[nH]cn1)C(=O)N[C@H](Cc1ccccc1)C(=O)N[C@@H](CCCNC(=N)N)C(=O)N[C@@H](Cc1c[nH]c2ccccc12)C(=O)N[C@@H](CCN)C(N)=O [Analogue 10] (Ac-[Nle]EH[dF]RW[Dab]-NH2) | 10.0 | P(±) | 0.9 | P(±)
CCCC[C@H](NC(C)=O)C(=O)N[C@@H](CC(=O)O)C(=O)N[C@@H](Cc1c[nH]cn1)C(=O)N[C@H](Cc1ccccc1)C(=O)N[C@@H](CCCNC(=N)N)C(=O)N[C@@H](Cc1c[nH]c2ccccc12)C(=O)N[C@@H](CCN)C(N)=O [Analogue 11] | 50.0 | P(-) | 0.9 | P(-)
CCCC[C@H](NC(C)=O)C(=O)N[C@@H](CC(=O)O)C(=O)N[C@@H](Cc1c[nH]cn1)C(=O)N[C@H](Cc1ccccc1)C(=O)N[C@@H](CCCNC(=N)N)C(=O)N[C@@H](Cc1c[nH]c2ccccc12)C(=O)N[C@@H](CN)C(N)=O [Analogue 12] | 8.0 | P(-) | 0.2 | P(-)
CCCC[C@H](NC(C)=O)C(=O)N[C@@H](CCC(=O)O)C(=O)N[C@@H](Cc1c[nH]cn1)C(=O)N[C@@H](Cc1ccccc1)C(=O)N[C@@H](CCCNC(=N)N)C(=O)N[C@@H](Cc1c[nH]c2ccccc12)C(=O)N[C@@H](CCCCN)C(N)=O [Analogue 13] | 0.08 | P(-) | 0.001 | P(+)
CCCC[C@H](NC(C)=O)C(=O)N[C@@H](CC(=O)O)C(=O)N[C@@H](Cc1c[nH]cn1)C(=O)N[C@@H](Cc1ccccc1)C(=O)N[C@@H](CCCNC(=N)N)C(=O)N[C@@H](Cc1c[nH]c2ccccc12)C(=O)N[C@@H](CCCCN)C(N)=O [Analogue 14] | 0.08 | P(-) | – | –
